Laboratory results reported in patent US6420129B1, “Reagent composition for determination of electrolytes” (Toyo Boseki Kabushiki Kaisha, priority 1998, dated 2002).

Experiments:
[1] = Visual observation of test solutions for deposition of crystals or white turbidity; assay type: physicochemical; design: key to turbidity (visual observation): +: turbidity found; −: no turbidity
Protocol: Among the reagents for the determination of calcium with the reagent formulations as described below, test enzyme solutions were prepared by the addition of glucosyl-α-cyclodextrin (G1αCD), maltosyl-α-cyclodextrin (G2αCD), glucosyl-p-cyclodextrin (G1βCD), or maltosyl-β-cyclodextrin(G2βCD) as a cyclodextrin derivative to have a concentration of 0, 1.5, 3, 6, or 12 mM. To the test enzyme solutions containing 3 mM glucosyl-β-cyclodextrin was further added independently N-acetylcysteine or reduced glutathione to have a concentration of 2.5, 5, 10, or 20 mM.
Both kinds of test solutions prepared by the above procedures were stored at 4° C. for 3 months. Visual observation of the test solutions was carried out just after the preparation and after the storage to examine whether there was found the deposition of crystals or the presence of white turbidity. The results are shown in table 1 for the visual observation just after the preparation and in Table 2 for the visual observation after the storage.
The test solutions were prepared in the same manner as described in Example 1, except that α-cyclodextrin (αCD) (1.5, 3, 6, or 12 mM), β-cyclodextrin (βCD) (1.5, 3, 6, or 12 mM), or γ-cyclodextrin (γCD) (1.5, 3, 6, or 12 mM) was independently added instead of the cyclodextrin derivatives and the SH group containing compounds in the above reagent formulations to have the respective concentrations as shown in Table 1. Both kinds of test solutions were stored at 4° C. for 3 months. Visual observation of the test solutions was carried out just after the preparation and after the storage to examine whether there was found the deposition of crystals or the presence of white turbidity. The results are shown in Table 1 for the visual observation just after the preparation and in Table 2 for the visual observation after the storage.

[2] = target: T1, Inactive α-amylase (from swine pancreas) (Sus scrofa, UniProt P00690); test: Calcium linearity of test solutions just after preparation and after storage; assay type: biochemical; details: after the storage at 35° C. for 7 days
T1 construct: α-amylase derived from the swine pancreas; from tissue; host or cells: swine pancreas
T1 sequence (P00690 16-511): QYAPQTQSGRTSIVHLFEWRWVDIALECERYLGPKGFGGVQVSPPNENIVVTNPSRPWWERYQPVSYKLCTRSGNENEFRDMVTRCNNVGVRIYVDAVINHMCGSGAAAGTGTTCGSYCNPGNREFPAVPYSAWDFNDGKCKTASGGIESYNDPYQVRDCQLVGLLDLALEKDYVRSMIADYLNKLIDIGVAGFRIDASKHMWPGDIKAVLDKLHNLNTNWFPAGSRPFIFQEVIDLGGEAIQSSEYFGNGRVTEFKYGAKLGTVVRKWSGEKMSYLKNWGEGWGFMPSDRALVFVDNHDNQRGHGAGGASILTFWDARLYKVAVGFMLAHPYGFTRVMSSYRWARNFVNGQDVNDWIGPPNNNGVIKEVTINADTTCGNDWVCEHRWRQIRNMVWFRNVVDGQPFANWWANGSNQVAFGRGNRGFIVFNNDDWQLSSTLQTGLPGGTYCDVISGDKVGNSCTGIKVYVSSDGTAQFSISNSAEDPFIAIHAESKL
Protocol: To 5.8 μl of a sample was added 180 μl of a test enzyme solution, and the mixture was pre-warmed for 5 minutes, to which 90 μl of a test substrate solution was further added to make the reaction start. The change of absorbance per minute for 3 minutes was measured starting at the time when 2 minutes passed after the addition of the test substrate solution, and the amount of calcium in the sample was determined according to the two-point calibration curves for purified water and 10 mg/dl calcium standard solution.
The measuring apparatus used was HITACHI Automatic Analyzer model 7170. The measurement wavelength was 405 nm for the principal wavelength and 546 nm for the second wavelength. The measurement was carried out at 37° C.
[…] […] According to the method for the determination of the amount of calcium as described in Example 3, Sec. B, the calcium linearity was determined for test solutions just after the preparation and after the storage at 35° C. for 7 days with serial 10-fold dilutions of a 50 mg/dl aqueous calcium solution as samples.
Instead of the cyclodextrin derivatives and the SN-group containing compounds in the reagent formulations as described above in Example 1, β-cyclodextrin was added at 1.5 mM. The test solutions thus prepared were stored at 35° C. for 7 days and the calcium linearity was determined in the same manner as described in Example 3.

[3] = target: T1, Inactive α-amylase (from swine pancreas); test: Residual activity of α-amylase in test enzyme solutions after storage; assay type: biochemical; details: after storage at 35° C. for 7 days
Protocol: [table] In the test enzyme solutions of the reagents for the determination of calcium with the reagent formulations as described above in Example 1, glucosyl-α-cyclodextrin, maltosyl-α-cyclodextrin, glucosyl-β-cyclodextrin, or maltosyl-β-cyclodextrin was independently added as a cyclodextrin derivative at 12 mM. […] Instead of the cyclodextrin derivatives and the SH group containing compounds in the reagent formulations as described above in Example 1, glucose (100 mM), maltose (50 mM), maltotriose (30 mM), α-cyclodextrin (1.5 mM), β-cyclodextrin (1.5 mM), γ-cyclodextrin (1.5 mM), N-acetylcysteine (20 mM), or reduced glutathione (20 mM) was independently added to have the respective concentrations as shown in Table 3.

[4] = target: T1, Inactive α-amylase (from swine pancreas); test: Relative sensitivity in determination of calcium with 10 mg/dl calcium standard solution; assay type: biochemical; details: just after the preparation, 10 mg/dl calcium standard
Protocol: [table] In the test enzyme solutions of the reagents for the determination of calcium with the reagent formulations as described above in Example 1, glucosyl-α-cyclodextrin, maltosyl-α-cyclodextrin, glucosyl-β-cyclodextrin, or maltosyl-β-cyclodextrin was independently added as a cyclodextrin derivative at 0, 1.5, 3, 6, or 12 mM. To the test enzyme solutions containing 3 mM glucosyl-β-cyclodextrin was further added independently N-acetylcysteine or reduced glutathione at 2.5, 5, 10, or 20 mM, and the determination of calcium ions with a calcium standard solution was carried out as described below. According to the method as described below, the determination of the amount of calcium was carried out for test solutions just after the preparation with 10 mg/dl calcium standard solution as a sample, and the relative sensitivity (%) was determined under the respective reagent conditions when the sensitivity in the case of no addition of cyclodextrin derivatives was taken as 100%. B. Method for the Determination of the Amount of Calcium To 5.8 μl of a sample was added 180 μl of a test enzyme solution, and the mixture was pre-warmed for 5 minutes, to which 90 μl of a test substrate solution was further added to make the reaction start. […] The measuring apparatus used was HITACHI Automatic Analyzer model 7170. The measurement wavelength was 405 nm for the principal wavelength and 546 nm for the second wavelength. The measurement was carried out at 37° C. […] The test solutions thus prepared were used for the determination of the calcium standard solution in the same manner as described in Example 3.

[5] = after storage at 4° C. for 3 months, agent added 1.5 mM
[6] = after storage at 4° C. for 3 months, agent added 3 mM
[7] = after storage at 4° C. for 3 months, agent added 6 mM
[8] = after storage at 4° C. for 3 months, agent added 12 mM
[9] = just after the preparation, agent added 1.5 mM
[10] = just after the preparation, agent added 3 mM
[11] = just after the preparation, agent added 6 mM
[12] = just after the preparation, agent added 12 mM

turbidity (visual observation) [1, 5] | turbidity (visual observation) [1, 6] | turbidity (visual observation) [1, 7] | turbidity (visual observation) [1, 8] | turbidity of test enzyme solution (in words) ([1]; after the storage at 4° C. for 3 months, at 3 mM) | turbidity (visual observation) [1, 9] | turbidity (visual observation) [1, 10] | turbidity (visual observation) [1, 11] | turbidity (visual observation) [1, 12] | turbidity of test enzyme solution (in words) ([1]; just after the preparation, at 6 mM) | Residual activity (%) ([3]; agent 1.5 mM) | Relative sensitivity (%) when sensitivity in case of no addition is taken as 100% ([4]; agent 1.5 mM) | Relative sensitivity (%) when sensitivity in case of no addition is taken as 100% ([4]; agent 3 mM) | Relative sensitivity (%) when sensitivity in case of no addition is taken as 100% ([4]; agent 6 mM) | Relative sensitivity (%) when sensitivity in case of no addition is taken as 100% ([4]; agent 12 mM) | Residual activity (%) ([3]; agent 12 mM) | Compound | calcium linearity / quantitative reliability (in words) ([2]; agent 1.5 mM) | calcium linearity / quantitative reliability (in words) ([2]; agent 12 mM)
− | − | + | + | became turbid | − | − | + | + | had already become turbid | 77.4% |  |  |  |  |  | OC[C@H]1O[C@@H]2O[C@H]3[C@H](O)[C@@H](O)[C@@H](O[C@H]4[C@H](O)[C@@H](O)[C@@H](O[C@H]5[C@H](O)[C@@H](O)[C@@H](O[C@H]6[C@H](O)[C@@H](O)[C@@H](O[C@H]7[C@H](O)[C@@H](O)[C@@H](O[C@H]8[C@H](O)[C@@H](O)[C@@H](O[C@H]1[C@H](O)[C@H]2O)O[C@@H]8CO)O[C@@H]7CO)O[C@@H]6CO)O[C@@H]5CO)O[C@@H]4CO)O[C@@H]3CO [βCD, β-cyclodextrin, reference compound] | became deviated upward, and the quantitative reliability was decreased at high concentrations | 
− | − | − | − |  | − | − | − | − |  |  | 120.7% | 128.6% | 133.2% | 122.5% | 91.7% | OCC1OC(OCC2OC3OC4C(CO)OC(OC5C(CO)OC(OC6C(CO)OC(OC7C(CO)OC(OC8C(CO)OC(OC9C(CO)OC(OC2C(O)C3O)C(O)C9O)C(O)C8O)C(O)C7O)C(O)C6O)C(O)C5O)C(O)C4O)C(O)C(O)C1O (stereo not drawn) [G1βCD, glucosyl-β-cyclodextrin] |  | the quantitative reliability was kept at high concentrations
